Source: patent US20150320704A1, “COMPOSITIONS AND METHODS FOR TREATMENT OF HAIR LOSS” (DS Healthcare Group, Inc., priority 2014, published 2015)

Tested on: humans
Assay: not given
Conditions: cited from earlier work

Row | Molecule | hypertrichosis
1 | CC1=NS(=O)(=O)c2cc(Cl)ccc2N1 [diazoxide] | cause hypertrichosis
2 | CC(N/C(=N\C#N)Nc1ccncc1)C(C)(C)C (centres unmarked) [pinacidil] | cause hypertrichosis

Tested on: male subjects experiencing active thinning-hair
Assay: Hair regrowth study, double blind, daily topical application for 90 days
Format: in vivo, human
Conditions: Example 2: study of Example 1 repeated, formulation of vehicle and one pimarene compound, lacking other pine resin compounds
Protocol: A double blind study was performed on male subjects between the ages of 25 and 55 years who had been experiencing active thinning-hair. […] A global photograph of each subject was taken from the crown area and a second photograph was taken of the top of the head to track frontal areas. […] In addition to the pimarene compounds, the formulations contained pine resin compounds that are not calcium channel opening agents, including abietic acid, neoabietic acid, dehydroabietic acid, and palustric acid. The target sites of each subject were monitored over the 90 day period and photographs were again obtained at the end of this period and compared to those at baseline.
The formulation lacks a pine resin compound other than a pimarene compound.

Row | Molecule | hair thickness and growth, outcome of treatment
3 | C=C[C@@]1(C)CC[C@H]2C(=CC[C@@H]3[C@]2(C)CCC[C@@]3(C)C(=O)O)C1 [isopimaric acid] | improvement in hair thickness and growth in a majority of the subjects
4 | CC[C@@]1(C)CC[C@H]2C(=CC[C@H]3[C@](C)(CO)CCC[C@]23C)C1 [dihydroisopimarinol] | improvement in hair thickness and growth in a majority of the subjects
5 | dihydropimaric acid | improvement in hair thickness and growth in a majority of the subjects
6 | C=C[C@]1(C)C=C2CC[C@@H]3[C@](C)(CCC[C@@]3(C)C(=O)O)[C@H]2CC1 [sandaracopimaric acid] | improvement in hair thickness and growth in a majority of the subjects
7 | CC[C@@]1(C)CC[C@H]2C(=CCC3[C@]2(C)CCC[C@]3(C)C(=O)O)C1 (some centres unmarked) [dihydroisopimaric acid] | improvement in hair thickness and growth in a majority of the subjects
8 | C=C[C@@]1(C)C=C2CC[C@@H]3[C@](C)(CCC[C@@]3(C)C(=O)O)[C@H]2CC1 [pimaric acid] | improvement in hair thickness and growth in a majority of the subjects

Same assay, conditions: Example 3: study of Example 1 repeated, formulation of vehicle and a potassium channel opening agent other than pimarene compounds

Row | Molecule | hair thickness and growth, outcome of treatment
9 | FC(F)(F)C(Cl)Br (centres unmarked) [halothane] | improvement in hair thickness and growth in a majority of the subjects
10 | CC(C(O)c1ccc(O)cc1)N1CCC(Cc2ccccc2)CC1 (centres unmarked) [ifenprodil] | improvement in hair thickness and growth in a majority of the subjects
11 | COc1ccc(Cl)cc1[C@]1(F)C(=O)Nc2cc(C(F)(F)F)ccc21 [BIAS-204352] | improvement in hair thickness and growth in a majority of the subjects

Tested on: balding macaques
Assay: not given
Conditions: topical application, 20-week treatment period; cited from earlier work

Row | Molecule | scalp hair growth
12 | CCC(C)(C)N=C(NC#N)Nc1cccnc1 [P-1075] | stimulated hair growth
13 | CNC(=S)[C@]1(c2cccnc2)CCCC[S+]1[O-] (some centres unmarked) [RP-49,356] | not effective in promoting hair growth
14 | CC1(C)Oc2ccc(C#N)cc2C(N2CCCC2=O)C1O (centres unmarked) [cromakalin] | stimulated hair growth
